{
  "source": "patent US20240067632A1",
  "about": "“WEE1 Degrading Compounds and Uses Thereof” (Bristol-Myers Squibb Company, priority 2022, published 2024)",
  "key": {"[1]": {"test_system": "MKN45 cells", "experiment": "MKN45 cell proliferation assay (Cell-Titer-Glo, 120 h)", "format": "cell-based", "settings": "for EC50: Homo sapiens, MKN-45, 120 h, Cell-Titer-Glo, read-out: MKN45 Cell Prolif. 120 hr (EC50); for MKN45 Cell Prolif. 120 hr (Ymin-Obs): minimal percent of DMSO control observed in the concentrations tested", "how_it_was_run": "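Growth inhibition was read as blank-corrected Cell-Titer-Glo luminescence expressed as percent DMSO control after 120 h at 37 C, 400 cells/well. Compounds tested in triplicate as 10-point half-log series from 1 or 10 uM, 0.1% DMSO; four-parameter fit gave EC50, and lowest observed percent control was reported as Ymin-obs.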"}, "[2]": {"molecular_target": "T1, WEE1 (Homo sapiens, UniProt P30291+Q96SW2)", "T1 construct": "C-terminal ePL-tagged (DiscoverX, Fremont, CA) full-length WEE1 expression construct; expressed in transfected cells; host or cells: LentiX-HEK293T (Invitrogen), lentiviral transduction; co-expressing GSPT1-GN (G576N, lacking the first 158 amino acids)", "experiment": "WEE1-ePL degradation assay (LentiX-WEE1-ePL-GSPT1-ND cells, InCELL Hunter luminescence, 4 h)", "format": "cell-based", "settings": "293T-LentiX WEE1-ePL cells; for DC50: read-out: 293T-LentiX WEE1-ePL Degradation 4 hr (EC50)", "how_it_was_run": "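Degradation EC50 was fitted by a four-parameter logistic model, with the upper limit taken from DMSO wells. Luminescence was read with InCELL Hunter reagent after 30 min at room temperature, following a 4 h, 37° C exposure of 2500 cells/well. Cells were LentiX-HEK293T carrying ePL-tagged full-length WEE1, dosed in 10 points (3-fold) from 1 or 10 uM.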"}, "[3]": {"settings": "lower limit of the fit (0 = luciferase inhibitor, Ymax = DMSO control)"}},
  "note": "Where two headings read alike, the source gives them in different places.",
  "data": [
    {"smiles": "CNC(=O)c1ccc2cc(CN3CC[C@H](Oc4ccc5c(c4)CN(C4CCC(=O)NC4=O)C5=O)C3)ncc2c1", "note": "(stereo partly drawn) [3-{[(3S)-3-{[2-(2,6-dioxopiperidin-3-yl)-1-oxo-2,3-dihydro-1H-isoindol-5-yl]oxy}pyrrolidin-1-yl]methyl}-N-methylisoquinoline-7-carboxamide]", "values": [
      {"measurement": "EC50", "setting": "[1]; growth inhibition", "result": 66.8, "unit": "nM"},
      {"measurement": "MKN45 Cell Prolif. 120 hr (Ymin-Obs)", "setting": "[1]", "result": 7.51},
      {"measurement": "293T-LentiX WEE1-ePL Degradation 4 hr (Ymin)", "setting": "[2]; [3]", "result": 28},
      {"measurement": "DC50", "setting": "[2]", "result": 29.8, "unit": "nM"}
    ]},
    {"smiles": "N#Cc1ccc2cc(CN3CC[C@H](Oc4ccc5c(c4)CN(C4CCC(=O)NC4=O)C5=O)C3)ncc2c1", "note": "(stereo partly drawn) [3-{[(3S)-3-{[2-(2,6-dioxopiperidin-3-yl)-1-oxo-2,3-dihydro-1H-isoindol-5-yl]oxy}pyrrolidin-1-yl]methyl}isoquinoline-7-carbonitrile]", "values": [
      {"measurement": "EC50", "setting": "[1]; growth inhibition", "result": 10, "unit": "nM"},
      {"measurement": "MKN45 Cell Prolif. 120 hr (Ymin-Obs)", "setting": "[1]", "result": 8.661},
      {"measurement": "293T-LentiX WEE1-ePL Degradation 4 hr (Ymin)", "setting": "[2]; [3]", "result": 29},
      {"measurement": "DC50", "setting": "[2]", "result": 1.87, "unit": "nM"}
    ]},
    {"smiles": "N#Cc1nc2ccccc2cc1CN1CC[C@H](Oc2ccc3c(c2)CN(C2CCC(=O)NC2=O)C3=O)C1", "note": "(stereo partly drawn) [3-{[(3S)-3-{[2-(2,6-dioxopiperidin-3-yl)-1-oxo-2,3-dihydro-1H-isoindol-5-yl]oxy}pyrrolidin-1-yl]methyl}quinoline-2-carbonitrile]", "values": [
      {"measurement": "EC50", "setting": "[1]; growth inhibition", "result": 5.83, "unit": "nM"},
      {"measurement": "MKN45 Cell Prolif. 120 hr (Ymin-Obs)", "setting": "[1]", "result": 6.985},
      {"measurement": "293T-LentiX WEE1-ePL Degradation 4 hr (Ymin)", "setting": "[2]; [3]", "result": 29},
      {"measurement": "DC50", "setting": "[2]", "result": 1.2, "unit": "nM"}
    ]},
    {"smiles": "O=C1CCC(N2Cc3cc(O[C@H]4CCN(Cc5ccc6nc(N7CCS(=O)(=O)CC7)ncc6c5)C4)ccc3C2=O)C(=O)N1", "note": "(stereo partly drawn) [4-(6-{[(3S)-3-{[2-(2,6-dioxopiperidin-3-yl)-1-oxo-2,3-dihydro-1H-isoindol-5-yl]oxy}pyrrolidin-1-yl]methyl}quinazolin-2-yl)-1λ^6-thiomorpholine-1,1-dione]", "values": [
      {"measurement": "EC50", "setting": "[1]; growth inhibition", "result": 51, "unit": "nM"},
      {"measurement": "MKN45 Cell Prolif. 120 hr (Ymin-Obs)", "setting": "[1]", "result": 17.09},
      {"measurement": "293T-LentiX WEE1-ePL Degradation 4 hr (Ymin)", "setting": "[2]; [3]", "result": 42},
      {"measurement": "DC50", "setting": "[2]", "result": 23.6, "unit": "nM"}
    ]},
    {"smiles": "O=C1CCC(N2Cc3cc(O[C@H]4CCN(Cc5ccc6nc(N7CCS(=O)(=O)CC7)ccc6c5)C4)ccc3C2=O)C(=O)N1", "note": "(stereo partly drawn) [4-(6-{[(3S)-3-{[2-(2,6-dioxopiperidin-3-yl)-1-oxo-2,3-dihydro-1H-isoindol-5-yl]oxy}pyrrolidin-1-yl]methyl}quinolin-2-yl)-1λ^6-thiomorpholine-1,1-dione]", "values": [
      {"measurement": "EC50", "setting": "[1]; growth inhibition", "result": 29.4, "unit": "nM"},
      {"measurement": "MKN45 Cell Prolif. 120 hr (Ymin-Obs)", "setting": "[1]", "result": 10.02},
      {"measurement": "293T-LentiX WEE1-ePL Degradation 4 hr (Ymin)", "setting": "[2]; [3]", "result": 40},
      {"measurement": "DC50", "setting": "[2]", "result": 19.1, "unit": "nM"}
    ]},
    {"smiles": "N#Cc1ccc2cc(CN3C[C@@H](F)[C@H](Oc4ccc5c(c4)CN(C4CCC(=O)NC4=O)C5=O)C3)ccc2n1", "note": "(stereo partly drawn) [6-{[(3R,4R)-3-{[2-(2,6-dioxopiperidin-3-yl)-1-oxo-2,3-dihydro-1H-isoindol-5-yl]oxy}-4-fluoropyrrolidin-1-yl]methyl}quinoline-2-carbonitrile]", "values": [
      {"measurement": "EC50", "setting": "[1]; growth inhibition", "result": 91.6, "unit": "nM"},
      {"measurement": "MKN45 Cell Prolif. 120 hr (Ymin-Obs)", "setting": "[1]", "result": 37.36},
      {"measurement": "293T-LentiX WEE1-ePL Degradation 4 hr (Ymin)", "setting": "[2]; [3]", "result": 32.7},
      {"measurement": "DC50", "setting": "[2]", "result": 22.3, "unit": "nM"}
    ]},
    {"smiles": "N#Cc1ccc2cc(CN3C[C@H](F)[C@H](Oc4ccc5c(c4)CN(C4CCC(=O)NC4=O)C5=O)C3)ccc2n1", "note": "(stereo partly drawn) [6-{[(3R,4S)-3-{[2-(2,6-dioxopiperidin-3-yl)-1-oxo-2,3-dihydro-1H-isoindol-5-yl]oxy}-4-fluoropyrrolidin-1-yl]methyl}quinoline-2-carbonitrile]", "values": [
      {"measurement": "EC50", "setting": "[1]; growth inhibition", "result": 22.7, "unit": "nM"},
      {"measurement": "MKN45 Cell Prolif. 120 hr (Ymin-Obs)", "setting": "[1]", "result": 24.13},
      {"measurement": "293T-LentiX WEE1-ePL Degradation 4 hr (Ymin)", "setting": "[2]; [3]", "result": 33.71},
      {"measurement": "DC50", "setting": "[2]", "result": 13.1, "unit": "nM"}
    ]},
    {"smiles": "N#Cc1ccc2cc(CN3CC[C@H](Oc4ccc5c(c4)CN([C@H]4CCC(=O)NC4=O)C5=O)C3)cc(F)c2n1", "note": "[6-{[(3S)-3-({2-[(3S)-2,6-dioxopiperidin-3-yl]-1-oxo-2,3-dihydro-1H-isoindol-5-yl}oxy)pyrrolidin-1-yl]methyl}-8-fluoroquinoline-2-carbonitrile]", "values": [
      {"measurement": "EC50", "setting": "[1]; growth inhibition", "result": 2.72, "unit": "nM"},
      {"measurement": "MKN45 Cell Prolif. 120 hr (Ymin-Obs)", "setting": "[1]", "result": 8.579},
      {"measurement": "293T-LentiX WEE1-ePL Degradation 4 hr (Ymin)", "setting": "[2]; [3]", "result": 27.19},
      {"measurement": "DC50", "setting": "[2]", "result": 1.71, "unit": "nM"}
    ]},
    {"smiles": "N#Cc1ccc2cc(CN3CC[C@H](Oc4ccc5c(c4)CN([C@H]4CCC(=O)NC4=O)C5=O)C3)ccc2n1", "note": "[6-{[(3S)-3-({2-[(3S)-2,6-dioxopiperidin-3-yl]-1-oxo-2,3-dihydro-1H-isoindol-5-yl}oxy)pyrrolidin-1-yl]methyl}quinoline-2-carbonitrile]", "values": [
      {"measurement": "EC50", "setting": "[1]", "result": 6.01, "unit": "nM"},
      {"measurement": "MKN45 Cell Prolif. 120 hr (Ymin-Obs)", "setting": "[1]", "result": 14.78},
      {"measurement": "293T-LentiX WEE1-ePL Degradation 4 hr (Ymin)", "setting": "[2]; lower limit of the fit (Ymin=0 luciferase inhibitor, Ymax DMSO control)", "result": 28.06},
      {"measurement": "DC50", "setting": "[2]", "result": 2.46, "unit": "nM"}
    ]},
    {"smiles": "C[C@]1(Oc2ccc3c(c2)CN(C2CCC(=O)NC2=O)C3=O)CCN(Cc2ccc3nc(C#N)ccc3c2)C1", "note": "(stereo partly drawn) [6-{[(3S)-3-{[2-(2,6-dioxopiperidin-3-yl)-1-oxo-2,3-dihydro-1H-isoindol-5-yl]oxy}-3-methylpyrrolidin-1-yl]methyl}quinoline-2-carbonitrile]", "values": [
      {"measurement": "EC50", "setting": "[1]; growth inhibition", "result": "> 10000", "unit": "nM"},
      {"measurement": "MKN45 Cell Prolif. 120 hr (Ymin-Obs)", "setting": "[1]", "result": 80.88},
      {"measurement": "293T-LentiX WEE1-ePL Degradation 4 hr (Ymin)", "setting": "[2]; [3]", "result": 94}
    ]},
    {"smiles": "Cc1cc(C#N)c2cc(CN3CC[C@H](Oc4ccc5c(c4)CN(C4CCC(=O)NC4=O)C5=O)C3)ccc2n1", "note": "(stereo partly drawn) [6-{[(3S)-3-{[2-(2,6-dioxopiperidin-3-yl)-1-oxo-2,3-dihydro-1H-isoindol-5-yl]oxy}pyrrolidin-1-yl]methyl}-2-methylquinoline-4-carbonitrile]", "values": [
      {"measurement": "EC50", "setting": "[1]; growth inhibition", "result": "> 10000", "unit": "nM"},
      {"measurement": "MKN45 Cell Prolif. 120 hr (Ymin-Obs)", "setting": "[1]", "result": 86.89},
      {"measurement": "293T-LentiX WEE1-ePL Degradation 4 hr (Ymin)", "setting": "[2]; [3]", "result": 66.8},
      {"measurement": "DC50", "setting": "[2]", "result": 20.7, "unit": "nM"}
    ]},
    {"smiles": "N#Cc1nc2ccc(CN3CC[C@H](Oc4ccc5c(c4)CN(C4CCC(=O)NC4=O)C5=O)C3)cc2cc1F", "note": "(stereo partly drawn) [6-{[(3S)-3-{[2-(2,6-dioxopiperidin-3-yl)-1-oxo-2,3-dihydro-1H-isoindol-5-yl]oxy}pyrrolidin-1-yl]methyl}-3-fluoroquinoline-2-carbonitrile]", "values": [
      {"measurement": "EC50", "setting": "[1]; growth inhibition", "result": 32.8, "unit": "nM"},
      {"measurement": "MKN45 Cell Prolif. 120 hr (Ymin-Obs)", "setting": "[1]", "result": 12.265},
      {"measurement": "293T-LentiX WEE1-ePL Degradation 4 hr (Ymin)", "setting": "[2]; [3]", "result": 35},
      {"measurement": "DC50", "setting": "[2]", "result": 7.79, "unit": "nM"}
    ]},
    {"smiles": "CN(C)C(=O)c1ccc2cc(CN3CC[C@H](Oc4ccc5c(c4)CN(C4CCC(=O)NC4=O)C5=O)C3)ccc2n1", "note": "(stereo partly drawn) [6-{[(3S)-3-{[2-(2,6-dioxopiperidin-3-yl)-1-oxo-2,3-dihydro-1H-isoindol-5-yl]oxy}pyrrolidin-1-yl]methyl}-N,N-dimethylquinoline-2-carboxamide]", "values": [
      {"measurement": "EC50", "setting": "[1]; growth inhibition", "result": 17.5, "unit": "nM"},
      {"measurement": "MKN45 Cell Prolif. 120 hr (Ymin-Obs)", "setting": "[1]", "result": 8.56},
      {"measurement": "293T-LentiX WEE1-ePL Degradation 4 hr (Ymin)", "setting": "[2]; [3]", "result": 29.42},
      {"measurement": "DC50", "setting": "[2]", "result": 9.05, "unit": "nM"}
    ]},
    {"smiles": "CNC(=O)c1ncc2cc(CN3CC[C@H](Oc4ccc5c(c4)CN(C4CCC(=O)NC4=O)C5=O)C3)ccc2n1", "note": "(stereo partly drawn) [6-{[(3S)-3-{[2-(2,6-dioxopiperidin-3-yl)-1-oxo-2,3-dihydro-1H-isoindol-5-yl]oxy}pyrrolidin-1-yl]methyl}-N-methylquinazoline-2-carboxamide]", "values": [
      {"measurement": "EC50", "setting": "[1]; growth inhibition", "result": 337, "unit": "nM"},
      {"measurement": "MKN45 Cell Prolif. 120 hr (Ymin-Obs)", "setting": "[1]", "result": 8.51},
      {"measurement": "293T-LentiX WEE1-ePL Degradation 4 hr (Ymin)", "setting": "[2]; [3]", "result": 38},
      {"measurement": "DC50", "setting": "[2]", "result": 175, "unit": "nM"}
    ]}
  ]
}
